The values below come from patent US9850283B2, “Macrocyclic inhibitors of the PD-1/PD-L1 and CD80(B7-1)/PD-L1 protein/protein interactions” (BRISTOL-MYERS SQUIBB COMPANY, priority 2013, dated 2017).

One assay concerns the target T1, Human PD-L1/PD-1 (Homo sapiens, UniProt Q9NZQ7).
T1 construct: made in house; host or cells: HEK293T
Briefly: HTRF PD-1-Ig/PD-L1-His binding assay (human PD-L1). The following applies: cluster symbol; read-out: HTRF IC50 cluster. Summed up: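 Interaction of Fc-tagged soluble PD-1 with His-tagged soluble PD-L1 is monitored by time-resolved FRET. Donor is europium cryptate anti-Ig (1 nM final) and acceptor is APC anti-His (20 nM final). Assay buffer is dPBS with 0.1% BSA and 0.05% Tween-20.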

In assay [1] the target is T2, LK35.2-hPD-L1 cells / PE-labeled PD-1-Ig (Homo sapiens, UniProt Q9NZQ7).
T2 construct: expressed in transfected cells; host or cells: LK35.2 mouse B cell line
The assay is described as follows: LK35.2-hPD-L1 cell binding high-content screening assay. The class given is cell-based. The following applies: cluster symbol, read-out: CBA IC50 cluster. Summed up:
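Fluorescent PD-1-Ig binding to PD-L1-expressing LK35.2 cells, imaged after washing. Conditions: 1 nM PE-PD-1-Ig, 37 °C, 1 h, RPMI with 10% fetal calf serum.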

Where [2] appears, read: cell line of CBA not given (LK35.2-hPD-L1 or 293T-hPD-L1).
[3] abbreviates: cell binding assay, cell line not given.

By IC50 is commonly meant the point on the concentration scale where inhibition reaches its midpoint.

Read-outs that look alike come from different tables or passages of the source. Positions of bridges follow the written chain, without caps; N, C: chain ends. Non-standard residues stand in square brackets, D forms with d. Residues, ends and D or L forms follow the SMILES beside them. Ala(indol-4-yl) = N[C@@H](Cc1cccc2[nH]ccc12)C(=O)O; Phe(3,4,5-F3) = N[C@@H](Cc1cc(F)c(F)c(F)c1)C(=O)O; Ala(thiazol-5-yl) = N[C@@H](Cc1cncs1)C(=O)O; Phe(3-F) = N[C@@H](Cc1cccc(F)c1)C(=O)O; Pro(4R-NH2) = N[C@H]1CN[C@H](C(=O)O)C1; Bta = N[C@@H](Cc1csc2ccccc12)C(=O)O; Hyp = O=C(O)[C@@H]1C[C@@H](O)CN1; NMeF = CN[C@@H](Cc1ccccc1)C(=O)O; NMeNle = CCCC[C@H](NC)C(=O)O; dPip = O=C(O)[C@H]1CCCCN1; NMeA = CN[C@@H](C)C(=O)O; Dab = NCC[C@H](N)C(=O)O; Sar = CNCC(=O)O Bounds are passed on as bounds.

T2 sequence (Q9NZQ7 19-290): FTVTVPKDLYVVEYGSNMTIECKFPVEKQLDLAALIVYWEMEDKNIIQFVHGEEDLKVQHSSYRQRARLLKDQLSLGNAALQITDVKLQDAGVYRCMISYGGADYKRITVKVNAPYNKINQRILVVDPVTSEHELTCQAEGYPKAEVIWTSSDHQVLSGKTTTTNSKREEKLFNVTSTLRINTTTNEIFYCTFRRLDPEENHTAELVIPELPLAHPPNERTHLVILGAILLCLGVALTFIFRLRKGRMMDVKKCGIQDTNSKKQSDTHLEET
T1 sequence (Q9NZQ7 with tags, fused parts or gaps): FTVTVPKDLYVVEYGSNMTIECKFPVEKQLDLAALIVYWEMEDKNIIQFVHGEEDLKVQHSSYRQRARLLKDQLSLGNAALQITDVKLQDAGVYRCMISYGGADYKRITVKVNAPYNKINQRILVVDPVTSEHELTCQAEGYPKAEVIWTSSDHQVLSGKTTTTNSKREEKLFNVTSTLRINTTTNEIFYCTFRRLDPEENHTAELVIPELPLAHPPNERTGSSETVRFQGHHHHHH

Consider `CCCC[C@H]1C(=O)N(C)CC(=O)N[C@@H](CC(=O)O)C(=O)N[C@@H](C(C)C)C(=O)N(C)[C@@H](Cc2ccccc2)C(=O)N[C@@H](Cc2ccc(O)cc2)C(=O)N(C)CC(=O)N[C@@H](Cc2csc3ccccc23)C(=O)N[C@@H](Cc2ccc(O)cc2)C(=O)N[C@@H](CCC(=O)O)C(=O)N[C@H](C(=O)NCC(N)=O)CSCC(=O)N[C@@H](Cc2ccccc2)C(=O)N(C)[C@@H](Cc2ccccc2)C(=O)N1C` [Example 3074] ({CH2CO}-F[NMeF][NMeNle][Sar]DV[NMeF]Y[Sar][Bta]YECG-NH2; thioether N-13), for which the 50% inhibitory concentration (IC50) on Human PD-L1/PD-1 fell in the range of 6.76 to 30.3 nM; in assay [1] (setting [2]), 4.78 to 72.9 nM.

For `CCCC[C@H]1C(=O)N2CCC[C@@H]2C(=O)N2C[C@H](N)C[C@H]2C(=O)N[C@@H](C(C)C)C(=O)N(C)[C@@H](Cc2ccccc2)C(=O)N[C@@H](Cc2ccc(O)cc2)C(=O)N2CCC[C@@H]2C(=O)N[C@@H](Cc2c[nH]c3ccccc23)C(=O)N[C@@H](Cc2ccc(O)cc2)C(=O)N[C@@H](CC(C)C)C(=O)N[C@H](C(=O)NCC(N)=O)CSCC(=O)N[C@@H](Cc2cc(F)c(F)c(F)c2)C(=O)N(C)[C@@H](Cc2ccccc2)C(=O)N1C` [Example 3193] ({CH2CO}-[Phe(3,4,5-F3)][NMeF][NMeNle][dP][Pro(4R-NH2)]V[NMeF]Y[dP]WYLCG-NH2; thioether N-13), the IC50 lay within 0.385 to 6.74 nM at Human PD-L1/PD-1 and 0.158 to 4.71 nM in assay [1] (setting [2]).

For `CCCC[C@H]1C(=O)N(C)CC(=O)N[C@@H](CC(=O)O)C(=O)N[C@@H](C(C)C)C(=O)N(C)[C@@H](Cc2ccccc2)C(=O)N[C@@H](Cc2ccc(O)cc2)C(=O)N(C)CC(=O)N[C@@H](Cc2c[nH]c3ccccc23)C(=O)N[C@@H](Cc2ccc(O)cc2)C(=O)N[C@@H](CC(C)C)C(=O)N[C@H](C(=O)NCC(N)=O)CSCC(=O)N[C@@H](Cc2cccc(F)c2)C(=O)N(C)[C@@H](Cc2ccccc2)C(=O)N1C` [Example 3125] ({CH2CO}-[Phe(3-F)][NMeF][NMeNle][Sar]DV[NMeF]Y[Sar]WYLCG-NH2; thioether N-13), the IC50 on Human PD-L1/PD-1 fell in the range of 6.76 to 30.3 nM; in assay [1] (setting [2]), 0.158 to 4.71 nM.

`CCCC[C@H]1C(=O)N(C)CC(=O)N[C@@H](CC(=O)O)C(=O)N[C@@H](C(C)C)C(=O)N(C)[C@@H](Cc2ccccc2)C(=O)N2C[C@H](O)C[C@H]2C(=O)N2CCC[C@@H]2C(=O)N[C@@H](Cc2c[nH]c3ccccc23)C(=O)N[C@@H](Cc2ccc(O)cc2)C(=O)N[C@@H](CC(C)C)C(=O)N[C@H](C(=O)NCC(N)=O)CSCC(=O)N[C@@H](Cc2ccccc2)C(=O)N(C)[C@@H](Cc2ccccc2)C(=O)N1C` [Example 3177] (HELM PEPTIDE1{[O=C(C[*:3])[*:2]].F.[meF].[CCCC[C@@H](C(=O)[*:2])N(C)[*:1]].[Sar].D.V.[meF].[Hyp].[dP].W.Y.L.C.G.[am]}$PEPTIDE1,PEPTIDE1,1:R3-14:R3$$$V2.0): the concentration for half-maximal inhibition (IC50) at Human PD-L1/PD-1 was greater than 30.5 nM; in assay [1] (setting [2]), greater than 74.3 nM.

For `CCCC[C@H]1C(=O)N(C)CC(=O)N[C@@H](CC(=O)O)C(=O)N[C@@H](C(C)C)C(=O)N(C)[C@@H](Cc2ccccc2)C(=O)N[C@@H](Cc2ccc(O)cc2)C(=O)N2CCCC[C@@H]2C(=O)N[C@@H](Cc2c[nH]c3ccccc23)C(=O)N[C@@H](Cc2ccc(O)cc2)C(=O)N[C@@H](CC(C)C)C(=O)N[C@H](C(=O)NCC(N)=O)CSCC(=O)N[C@@H](Cc2ccccc2)C(=O)N(C)[C@@H](Cc2ccccc2)C(=O)N1C` [Example 3572] ({CH2CO}-F[NMeF][NMeNle][Sar]DV[NMeF]Y[dPip]WYLCG-NH2; thioether N-13), the figures for the IC50 (on Human PD-L1/PD-1; in assay [1] (setting [3])) were 0.385 to 6.74 nM and 0.158 to 4.71 nM, respectively.

For the molecule `CCCC[C@H]1C(=O)N(C)[C@@H](CCCC)C(=O)N[C@@H](CCCNC(=N)N)C(=O)N[C@H](C(=O)NCC(N)=O)CSCC(=O)N[C@@H](Cc2ccc(O)cc2)C(=O)N(C)[C@@H](C)C(=O)N[C@@H](CC(N)=O)C(=O)N2CCC[C@H]2C(=O)N[C@@H](Cc2cnc[nH]2)C(=O)N[C@@H](CC(C)C)C(=O)N2C[C@H](O)C[C@H]2C(=O)N[C@@H](Cc2c[nH]c3ccccc23)C(=O)N[C@@H](CCN)C(=O)N[C@@H](Cc2c[nH]c3ccccc23)C(=O)N1C` [Example 1134] ({CH2CO}-Y[NMeA]NPHL[Hyp]W[Dab]W[NMeNle][NMeNle]RCG-NH2; thioether N-14), the results for the IC50 (at Human PD-L1/PD-1; in assay [1] (setting [2])) were 6.76 to 30.3 nM and 0.158 to 4.71 nM, respectively.

Regarding `CCCC[C@H]1C(=O)N(C)[C@@H](CCCC)C(=O)N[C@@H](CCCNC(=N)N)C(=O)N[C@H](C(=O)NCC(N)=O)CSCC(=O)N[C@@H](Cc2ccc(O)cc2)C(=O)N2CCC[C@@H]2C(=O)N[C@@H](CC(N)=O)C(=O)N2CCC[C@H]2C(=O)N[C@@H](Cc2cnc[nH]2)C(=O)N[C@@H](CC(C)C)C(=O)N2CCC[C@H]2C(=O)N[C@@H](Cc2c[nH]c3ccccc23)C(=O)N[C@@H](CO)C(=O)N[C@@H](Cc2c[nH]c3ccccc23)C(=O)N1C` [Example 1137] ({CH2CO}-Y[dP]NPHLPWSW[NMeNle][NMeNle]RCG-NH2; thioether N-14), the half-inhibitory concentration (IC50) on Human PD-L1/PD-1 was greater than 30.5 nM; in assay [1] (setting [2]) it was greater than 74.3 nM.

Regarding `CCCC[C@H]1C(=O)N(C)[C@@H](CCCC)C(=O)N[C@@H](CCCNC(=N)N)C(=O)N[C@H](C(=O)NCC(N)=O)CSCC(=O)N[C@@H](Cc2ccccc2)C(=O)N(C)[C@@H](C)C(=O)N[C@@H](CC(N)=O)C(=O)N2CCC[C@H]2C(=O)N[C@@H](Cc2cncs2)C(=O)N[C@@H](CC(C)C)C(=O)N(C)CC(=O)N[C@@H](Cc2c[nH]c3ccccc23)C(=O)N[C@@H](CO)C(=O)N[C@@H](Cc2c[nH]c3ccccc23)C(=O)N1C` [Example 1067] ({CH2CO}-F[NMeA]NP[Ala(thiazol-5-yl)]L[Sar]WSW[NMeNle][NMeNle]RCG-NH2; thioether N-14), the figures for the IC50 (at Human PD-L1/PD-1; in assay [1] (setting [2])) were greater than 30.5 nM and greater than 74.3 nM, respectively.

As to `CCCC[C@H]1C(=O)N(C)CC(=O)N[C@@H](CC(=O)O)C(=O)N[C@@H](C(C)C)C(=O)N(C)[C@@H](Cc2ccccc2)C(=O)N[C@@H](Cc2ccc(O)cc2)C(=O)N(C)CC(=O)N[C@@H](Cc2c[nH]c3ccccc23)C(=O)N[C@@H](Cc2ccc(O)cc2)C(=O)N[C@@H](CC(C)C)C(=O)N[C@H](C(=O)NCC(N)=O)CSCC(=O)N[C@@H](Cc2cccc3[nH]ccc23)C(=O)N(C)[C@@H](Cc2ccccc2)C(=O)N1C` [Example 3103] ({CH2CO}-[Ala(indol-4-yl)][NMeF][NMeNle][Sar]DV[NMeF]Y[Sar]WYLCG-NH2; thioether N-13), the IC50 was greater than 30.5 nM on Human PD-L1/PD-1 and greater than 74.3 nM in assay [1] (setting [2]).

For `CCCC[C@H]1C(=O)N(C)CC(=O)N[C@@H](CC(=O)O)C(=O)N[C@@H](CCC)C(=O)N(C)[C@@H](Cc2ccccc2)C(=O)N[C@@H](Cc2ccc(O)cc2)C(=O)N(C)CC(=O)N[C@@H](Cc2c[nH]c3ccccc23)C(=O)N[C@@H](Cc2ccc(O)cc2)C(=O)N[C@@H](CC(C)C)C(=O)N[C@H](C(=O)NCC(N)=O)CSCC(=O)N[C@@H](Cc2ccccc2)C(=O)N(C)[C@@H](Cc2ccccc2)C(=O)N1C` [Example 3525] (HELM PEPTIDE1{[O=C(C[*:3])[*:2]].F.[meF].[CCCC[C@@H](C(=O)[*:2])N(C)[*:1]].[Sar].D.[Nva].[meF].Y.[Sar].W.Y.L.C.G.[am]}$PEPTIDE1,PEPTIDE1,1:R3-14:R3$$$V2.0), the concentration for half-maximal inhibition (IC50) was greater than 30.5 nM at Human PD-L1/PD-1 and greater than 74.3 nM in assay [1] (setting [3]).
